Source: US11612643B2, “Col14A1-derived tumor antigen polypeptide and use thereof” (Genoimmune Therapeutics Co., Ltd., priority 2016, dated 2023)

How the values were obtained:
[1] = biological target: T1, HLA-A0201 (Homo sapiens, UniProt P04439, D140Y/D185E/D98H/E176V/E277Q/G131W/G231S/I119V/I121R/I166T/I218V/L300P/L318F/N151K/N90K/P208A/P217A/Q86G/Q94H/R138H/R169H/T345S); assay: Affinity verification of the peptides to T2 cells (flow cytometry, FITC anti-HLA-A0201); assay type: cell-based; conditions: added peptide 100 μM, FI>1.5 high affinity for HLA-A0201, listed as wild-type peptide
T1 construct: T2 cells (a lymphocyte, tumor cell line, expressing HLA-A0201); host or cells: T2 cells (TAP-deficient T/B lymphocyte hybridoma, HLA-A2 positive)
Description: 10 μg/ml of each peptide as described above was added, and human β2 microglobulin (at a final concentration of 3 μg/ml) was added and cultured overnight in an incubator (37° C., 5% CO2). Two replicate wells were set up for each group.
Cells were collected by centrifugation of the cell culture at 200 g for 5 minutes. The collected cells were washed twice with PBS, and then directly incubated with FITC-conjugated anti-HLA-A0201 monoclonal antibody at 4° C. for 30 minutes. The mean fluorescence intensity (MFI) was then detected and analyzed by flow cytometer (BD FACSJazz™) and its software. The fluorescence index (FI) was calculated by using the following formula: FI=[MFIsample−MFIbackground]/MFIbackground;

[2] = test system: CD8+ T cells; assay: ELISPOTs detection of IFN-gamma secretion by peptide-specific CD8+ T cells; assay type: cell-based, human; conditions: for Conclusion (immunogenicity): ELISPOTs; for Number of spots in the wild-type peptide group: T cells activated by listed peptide + T2 loaded with wild-type peptide FMVDGSWSI, 20 h
From the text: In this example, a ELISPOTs detection kit (Cat. No.: 3420-4AST-10, MABTECH) was used to verify the activation of an immune response of CD8+ T cells by the peptides of the present invention.
Principle of the ELISPOTs detection method is as follows: CD8+ T cells can specifically recognize the complex of HLA-A0201 and a peptide. The population of T cells recognizing the complex of the peptide and HLA-A0201 is varying, depending on the peptide sequence. Since T2 cells express HLA-A0201, CD8+ T cells can specifically recognize the T2 cells loaded with a peptide. After specific recognition of the complex of HLA-A0201 and the peptide, peptide-specific CD8+ T cells can be activated again to secrete IFN-gamma interferon. The IFN-gamma interferon secreted by the activated CD8+ T cells can be captured by antibodies on the ELISPOTs plate. Finally, the enzyme-conjugated antibody that recognizes IFN-gamma can degrade the substrate through the enzyme conjugated thereto and develop color, eventually producing spots. The number of spots represents the number of cells that are activated to secrete IFN-gamma interferon.
The cultured cells from Example 3 were added, along with T2 cells loaded with the mutant peptide […] of the present invention and the wild-type peptide […], respectively, into ELISPOTs plates, and cultured for 20 h, and then a ELISPOTs detection was performed (see the kit instruction). Finally, the spots produced by the ELISPOTs detection were counted.
The peptide was determined to have immunogenicity when the number of spots of the tested peptide/the number of spots of an unrelated peptide>2; that is, if the number of spots caused by the tested peptide is more than twice than that of an unrelated peptide, the tested peptide is determined to have immunogenicity.

[3] = test system: T2 cells; assay: LDH release assay, killing of peptide-loaded T2 target cells by CD8+ T cells; assay type: cell-based, human; conditions: T2 loaded with wild-type FMVDGSWSI, 4 h
Description: The cells cultured in Example 3 were co-cultured with T2 cells loaded with the mutant peptides of the present invention or the wild-type peptide or without a peptide. A maximum release well, a volume correction well, a medium control well, a spontaneous release well and control wells for example at different effector-to-target ratios (ratios of T cells to T2 cells) were set in this experiment. Three replicate wells were set for each group. After 4 h, 50 μl of the co-culture supernatant was taken out and added to 50 μl of LDH substrate mixture to catalyze the reaction of LDH substrate. Finally, the plates were read at a wavelength of 490 nm, with a reference wavelength of 680 nm, and the killing activity against target cells T2 was calculated based on the control wells.

[4] = test system: CD8+ T cells; assay: ELISPOTs detection of IFN-gamma secretion by peptide-specific CD8+ T cells; assay type: cell-based, human; conditions: ratio of spot numbers; >2 immunogenic
[5] = effector-to-target ratio (10:1)

Sequence	FI (fluorescence index) [1]	Conclusion (immunogenicity) [2]	Number of spots in the wild-type peptide group [2]	killing activity against target cells T2 ([3]; effector-to-target ratio (1:1))	killing activity against target cells T2 [3, 5]	Fold (tested/wild-type) [4]
FMVDGSWSI [wild-type COL14A1 peptide used as comparator]	greater than 1.5	–	–	–	–	–
FMVDGFWSV	–	immunogenic	41	3.37%	5.63%	7.87
FLVDGFWSL	–	immunogenic	30	3.13%	6.33%	10.26
FMVDGFWSL	–	immunogenic	37	3.12%	4.91%	8.86
FLVDGFWSV	–	immunogenic	31	3.26%	6.01%	9.71
FLVDGFWSI	–	immunogenic	28	2.65%	5.53%	11.21
